Assay results as given in US7176164B2, “1,3-selenazolin derivatives and process for preparing the same” (Gifu University, priority 2001, dated 2007).

Assays:
[1] = system: human HT-1080 fibrosarcoma cells; experiment: growth inhibitory action against human HT-1080 fibrosarcoma cells (crystal violet method); type: cell-based; settings: HT-1080 cells; for growth inhibitory action on HT-1080 fibrosarcoma cells (in words): 24 hours, summary of Table 1; for IC50: Homo sapiens, 24 hours culture with test drug, DMEM/F12 with 0.1% bovine serum albumin
Method: The growth inhibitory action of the selenazolin derivatives of chemical formulas 4 through 12 against human HT-1080 fibrosarcoma cells was investigated. HT-1080 fibrosarcoma cells growing in Eagle's Minimum Essential Medium (EMEM) containing 10% fetal calf serum within an incubator having an atmosphere of 5% CO2 and 95% air maintained at a temperature of 37 degrees Celsius were inoculated into a 96-well plate at the rate of 1×10^4 cells/well. After 48 hours, the medium was replaced with Dulbecco's Modified Eagle's Medium (DMEM)/F12 medium containing 0.1% bovine serum albumin, and the test drugs at each concentration (0.1 μM, 100 μM) were added, followed by culturing for 24 hours. Growth inhibitory action on human HT-1080 fibrosarcoma cells was determined from the staining density following staining using the crystal violet method.

[2] = system: protein kinases; experiment: simultaneous detection of the activity of a plurality of protein kinases on a single gel (lysate of v-src transformed NIH3T3 cells, labeled ATP, SDS-PAGE and autoradiography); type: biochemical; settings: supernatant of v-src transformed NIH3T3 cells; relative to rottlerin, typically used as a protein kinase inhibitor
Method: Action relative to a plurality of protein kinases was investigated in accordance with the method for simultaneous detection of the activity of a plurality of protein kinases on a single gel as described in Anal. Biochem. 212:106–110, 1993.
More specifically, NIH3T3 cells transformed with v-src were disintegrated with a hypotonic buffer and denucleated by gentle centrifugation. Various types of […] (including 1 μM PMA (phorbolmyristate acetate), 20 μM cyclic adenosine-3′,5′-monophosphate (cAMP)) were then added to the centrifuged supernatant. Moreover, 3-isopropyl-2-isopropylimino-1,3-selenazolidin-4-one of chemical formula 4 and labeled adenosine triphosphate (ATP) were added and the mixture was allowed to react. After stopping the reaction, the phosphorylated protein was analyzed by SDS-PAGE and autoradiography.

Row | Compound | growth inhibitory action on HT-1080 fibrosarcoma cells (in words) [1] | IC50 [1] | inhibitory activity compared with rottlerin [2]
1 | CC(C)N=C1[Se]CC(=O)N1C(C)C [Chemical Formula 4, 3-isopropyl-2-isopropylimino-1,3-selenazolidin-4-one] | potent growth inhibitory action | 3.2 µM | ≥ 20 times
2 | O=C1C[Se]C(=NC2CCCCC2)N1C1CCCCC1 [Chemical Formula 5, 3-cyclohexyl-2-cyclohexylimino-1,3-selenazolidin-4-one] | – | > 100 µM | –
3 | CC(C)N=C1[Se]C(C)C(=O)N1C(C)C (stereo not shown) [Chemical Formula 6, 3-isopropyl-2-isopropylimino-5-methyl-1,3-selenazolidin-4-one] | – | 89 µM | –
4 | CCC1[Se]C(=NC(C)C)N(C(C)C)C1=O (stereo not shown) [Chemical Formula 7, 3-isopropyl-2-isopropylimino-5-ethyl-1,3-selenazolidin-4-one] | potent growth inhibitory action | 2.5 µM | –
5 | CC(C)N=C1[Se]C(C)(C)C(=O)N1C(C)C [Chemical Formula 8, 3-isopropyl-2-isopropylimino-5,5-dimethyl-1,3-selenazolidin-4-one] | – | 98 µM | –
6 | CC(C)N=C1[Se]C(c2ccccc2)C(=O)N1C(C)C (stereo not shown) [Chemical Formula 9, 3-isopropyl-2-isopropylimino-5-phenyl-1,3-selenazolidin-4-one] | – | > 100 µM | –
7 | CC(C)(C)N=C1[Se]CC(=O)N1C(C)(C)C [Chemical Formula 10, 3-t-butyl-2-t-butylimino-1,3-selenazolidin-4-one] | potent growth inhibitory action | 4.5 µM | –
8 | Cc1ccc(N=C2[Se]CC(=O)N2c2ccc(C)cc2)cc1 [Chemical Formula 11, 3-p-tolyl-2-p-tolylimino-1,3-selenazolidin-4-one] | – | > 100 µM | –
9 | Cc1ccccc1N=C1[Se]CC(=O)N1c1ccccc1C [Chemical Formula 12, 3-o-tolyl-2-o-tolylimino-1,3-selenazolidin-4-one] | – | 75 µM | –
